Results as given in ChEMBL document CHEMBL1147633, “Structure-activity relationships of a novel class of endothelin receptor selective antagonists; 6-carboxy-2-isopropylamino-5,7-diarylcyclopenteno[1,2-b]pyridines” (Bioorg Med Chem Lett, 2004).

Test system: Rattus norvegicus
Test: Plasma levels of compound was evaluated in rats after 4 hr of oral administration at 3 mg/kg
Format: functional, organism-based
Design: dose 3 mg/kg

Structure (SMILES)	Plasma level
COCC(C)Cc1cc(OC)ccc1[C@@H]1c2nc(NC(C)C)ccc2[C@H](c2ccc3c(c2)OCO3)[C@H]1C(=O)O (stereo in doubt; form 1)	81 nM
COc1ccc([C@@H]2c3nc(NC(C)C)ccc3[C@H](c3ccc4c(c3)OCO4)[C@H]2C(=O)O)c(CC(C)CO)c1 (stereo in doubt; form 1)	22 nM

Test system: Rattus norvegicus
Test: Plasma levels of compound was evaluated in rats after 8 hr of oral administration at 3 mg/kg
Format: functional, organism-based
Design: dose 3 mg/kg

Structure (SMILES)	Plasma level
COCC(C)Cc1cc(OC)ccc1[C@@H]1c2nc(NC(C)C)ccc2[C@H](c2ccc3c(c2)OCO3)[C@H]1C(=O)O (stereo in doubt; form 1)	52 nM
COc1ccc([C@@H]2c3nc(NC(C)C)ccc3[C@H](c3ccc4c(c3)OCO4)[C@H]2C(=O)O)c(CC(C)CO)c1 (stereo in doubt; form 1)	11 nM

Test system: Rattus norvegicus
Test: Plasma levels of compound was evaluated in rats after 1 hr of oral administration at 3 mg/kg
Format: functional, organism-based
Design: dose 3 mg/kg

Structure (SMILES)	Plasma level
COCC(C)Cc1cc(OC)ccc1[C@@H]1c2nc(NC(C)C)ccc2[C@H](c2ccc3c(c2)OCO3)[C@H]1C(=O)O (stereo in doubt; form 1)	220 nM
COc1ccc([C@@H]2c3nc(NC(C)C)ccc3[C@H](c3ccc4c(c3)OCO4)[C@H]2C(=O)O)c(CC(C)CO)c1 (stereo in doubt; form 1)	110 nM

Molecular target: Endothelin receptor, ET-A/ET-B (Homo sapiens) (UniProt P24530+P25101)
Test: Selectivity ratio of inhibitory activity towards endothelin receptor A to endothelin receptor B (ETB/ETA)
Format: protein assay

Structure (SMILES)	Selectivity ratio
COc1ccc([C@@H]2c3nc(NC(C)C)ccc3[C@H](c3ccc4c(c3)OCO4)[C@H]2C(=O)O)c(CCO)c1	610
COc1ccc([C@@H]2c3nc(NC(C)C)ccc3[C@H](c3ccc4c(c3)OCO4)[C@H]2C(=O)O)c(OC(C)C)c1	800
CCCOc1cc(OC)ccc1[C@@H]1c2nc(NC(C)C)ccc2[C@H](c2ccc3c(c2)OCO3)[C@H]1C(=O)O	240
COc1ccc([C@@H]2c3nc(NC(C)C)ccc3[C@H](c3ccc4c(c3)OCO4)[C@H]2C(=O)O)c(CCCO)c1	910
COc1ccc([C@@H]2c3nc(NC(C)C)ccc3[C@H](c3ccc4c(c3)OCO4)[C@H]2C(=O)O)c(CC(C)(C)O)c1	1000
COc1ccc([C@@H]2c3nc(NC(C)C)ccc3[C@H](c3ccc4c(c3)OCO4)[C@H]2C(=O)O)c(CC(O)CO)c1 (single isomer, unassigned)	550
COc1ccc([C@@H]2c3nc(NC(C)C)ccc3[C@H](c3ccc4c(c3)OCO4)[C@H]2C(=O)O)c(CC(C)C(=O)N(C)C)c1 (stereo in doubt)	1800
COCC(C)Cc1cc(OC)ccc1[C@@H]1c2nc(NC(C)C)ccc2[C@H](c2ccc3c(c2)OCO3)[C@H]1C(=O)O (stereo in doubt; form 1)	1900

Continued, values first:

Selectivity ratio	Structure (SMILES)
600	COc1ccc([C@@H]2c3nc(NC(C)C)ccc3[C@H](c3ccc4c(c3)OCO4)[C@H]2C(=O)O)c(OCc2ccccc2)c1
530	COc1ccc([C@@H]2c3nc(NC(C)C)ccc3[C@H](c3ccc4c(c3)OCO4)[C@H]2C(=O)O)c(OC)c1
1300	COc1ccc([C@@H]2c3nc(NC(C)C)ccc3[C@H](c3ccc4c(c3)OCO4)[C@H]2C(=O)O)c(O)c1
350	COc1ccc([C@@H]2c3nc(NC(C)C)ccc3[C@H](c3ccc4c(c3)OCO4)[C@H]2C(=O)O)c(CCC(C)(C)O)c1
490	COc1ccc([C@@H]2c3nc(NC(C)C)ccc3[C@H](c3ccc4c(c3)OCO4)[C@H]2C(=O)O)c(OCC(C)C)c1
61	CCOc1cc(OC)ccc1[C@@H]1c2nc(NC(C)C)ccc2[C@H](c2ccc3c(c2)OCO3)[C@H]1C(=O)O
680	COc1ccc([C@@H]2c3nc(NC(C)C)ccc3[C@H](c3ccc4c(c3)OCO4)[C@H]2C(=O)O)c(CC(C)C(=O)N(C)C)c1 (single isomer, unassigned)
1300	COc1ccc([C@@H]2c3nc(NC(C)C)ccc3[C@H](c3ccc4c(c3)OCO4)[C@H]2C(=O)O)c(CC(C)CO)c1 (stereo in doubt; form 1)

Molecular target: T1, Endothelin-1 receptor (Homo sapiens, UniProt P25101)
T1 sequence (P25101 whole entry): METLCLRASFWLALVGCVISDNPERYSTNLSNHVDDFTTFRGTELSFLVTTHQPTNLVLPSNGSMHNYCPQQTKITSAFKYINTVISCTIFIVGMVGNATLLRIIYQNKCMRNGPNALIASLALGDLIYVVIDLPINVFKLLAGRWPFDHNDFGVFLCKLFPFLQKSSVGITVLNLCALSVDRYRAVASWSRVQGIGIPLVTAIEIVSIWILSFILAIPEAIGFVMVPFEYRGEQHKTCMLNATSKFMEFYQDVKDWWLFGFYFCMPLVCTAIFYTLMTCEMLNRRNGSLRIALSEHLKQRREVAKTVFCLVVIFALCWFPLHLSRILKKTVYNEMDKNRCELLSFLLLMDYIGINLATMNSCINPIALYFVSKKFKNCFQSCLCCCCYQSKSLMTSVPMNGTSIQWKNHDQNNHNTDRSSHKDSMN
Test: Inhibitory activity against [125I]ET1 binding to human endothelin A receptor

Structure (SMILES)	IC50
COc1ccc([C@@H]2c3nc(NC(C)C)ccc3[C@H](c3ccc4c(c3)OCO4)[C@H]2C(=O)O)c(CCO)c1	0.031 nM
COc1ccc([C@@H]2c3nc(NC(C)C)ccc3[C@H](c3ccc4c(c3)OCO4)[C@H]2C(=O)O)c(OC(C)C)c1	0.11 nM
CCCOc1cc(OC)ccc1[C@@H]1c2nc(NC(C)C)ccc2[C@H](c2ccc3c(c2)OCO3)[C@H]1C(=O)O	0.41 nM
COc1ccc([C@@H]2c3nc(NC(C)C)ccc3[C@H](c3ccc4c(c3)OCO4)[C@H]2C(=O)O)c(CCCO)c1	0.022 nM
COc1ccc([C@@H]2c3nc(NC(C)C)ccc3[C@H](c3ccc4c(c3)OCO4)[C@H]2C(=O)O)c(CC(C)(C)O)c1	0.014 nM

More lines, now with the values ahead:

IC50	Structure (SMILES)
0.8 nM	COc1ccc([C@@H]2c3nc(NC(C)C)ccc3[C@H](c3ccc4c(c3)OCO4)[C@H]2C(=O)O)c(OCc2ccccc2)c1
0.047 nM	COc1ccc([C@@H]2c3nc(NC(C)C)ccc3[C@H](c3ccc4c(c3)OCO4)[C@H]2C(=O)O)c(OC)c1
0.22 nM	COc1ccc([C@@H]2c3nc(NC(C)C)ccc3[C@H](c3ccc4c(c3)OCO4)[C@H]2C(=O)O)c(O)c1
0.065 nM	COc1ccc([C@@H]2c3nc(NC(C)C)ccc3[C@H](c3ccc4c(c3)OCO4)[C@H]2C(=O)O)c(CCC(C)(C)O)c1
0.86 nM	COc1ccc([C@@H]2c3nc(NC(C)C)ccc3[C@H](c3ccc4c(c3)OCO4)[C@H]2C(=O)O)c(OCC(C)C)c1
0.74 nM	CCOc1cc(OC)ccc1[C@@H]1c2nc(NC(C)C)ccc2[C@H](c2ccc3c(c2)OCO3)[C@H]1C(=O)O

Test system: Rattus norvegicus
Test: Plasma levels of compound was evaluated in rats after 4 hr of oral administration at 10 mg/kg
Format: functional, organism-based
Design: dose 10 mg/kg

Structure (SMILES)	Plasma level
COc1ccc([C@@H]2c3nc(NC(C)C)ccc3[C@H](c3ccc4c(c3)OCO4)[C@H]2C(=O)O)c(CC(C)(C)O)c1	48 nM
COc1ccc([C@@H]2c3nc(NC(C)C)ccc3[C@H](c3ccc4c(c3)OCO4)[C@H]2C(=O)O)c(CC(C)C(=O)N(C)C)c1 (stereo in doubt)	7 nM

Test system: Rattus norvegicus
Test: Plasma levels of compound was evaluated in rats after 8 hr of oral administration at 10 mg/kg
Format: functional, organism-based
Design: dose 10 mg/kg

Structure (SMILES)	Plasma level
COc1ccc([C@@H]2c3nc(NC(C)C)ccc3[C@H](c3ccc4c(c3)OCO4)[C@H]2C(=O)O)c(CC(C)(C)O)c1	110 nM
COc1ccc([C@@H]2c3nc(NC(C)C)ccc3[C@H](c3ccc4c(c3)OCO4)[C@H]2C(=O)O)c(CC(C)C(=O)N(C)C)c1 (stereo in doubt)	10 nM

Test system: Mus musculus
Test: In vivo efficacy of compound was determined in mouse after intravenous administration
Format: functional

Structure (SMILES)	AD50
COc1ccc([C@@H]2c3nc(NC(C)C)ccc3[C@H](c3ccc4c(c3)OCO4)[C@H]2C(=O)O)c(CC(C)(C)O)c1	0.042 MPK

Test system: Rattus norvegicus
Test: Plasma levels of compound was evaluated in rats after 1 hr of oral administration at 10 mg/kg
Format: functional, organism-based
Design: dose 10 mg/kg

Structure (SMILES)	Plasma level
COc1ccc([C@@H]2c3nc(NC(C)C)ccc3[C@H](c3ccc4c(c3)OCO4)[C@H]2C(=O)O)c(CC(C)(C)O)c1	460 nM
COc1ccc([C@@H]2c3nc(NC(C)C)ccc3[C@H](c3ccc4c(c3)OCO4)[C@H]2C(=O)O)c(CC(C)C(=O)N(C)C)c1 (stereo in doubt)	65 nM

Molecular target: T2, Endothelin receptor type B (Homo sapiens, UniProt P24530)
T2 sequence (P24530 whole entry): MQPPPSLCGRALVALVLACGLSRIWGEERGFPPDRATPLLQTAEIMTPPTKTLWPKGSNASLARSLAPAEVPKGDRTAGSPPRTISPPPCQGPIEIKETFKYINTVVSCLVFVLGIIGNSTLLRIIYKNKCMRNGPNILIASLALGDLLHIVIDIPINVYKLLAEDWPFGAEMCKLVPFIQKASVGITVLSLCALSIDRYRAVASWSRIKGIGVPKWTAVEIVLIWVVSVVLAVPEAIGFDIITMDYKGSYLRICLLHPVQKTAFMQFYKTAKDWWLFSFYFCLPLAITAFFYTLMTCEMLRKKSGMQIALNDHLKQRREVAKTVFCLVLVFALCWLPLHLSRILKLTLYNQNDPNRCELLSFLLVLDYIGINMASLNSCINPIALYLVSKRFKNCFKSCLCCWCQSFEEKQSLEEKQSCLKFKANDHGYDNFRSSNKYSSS
Test: Inhibitory activity against [125I]ET1 binding to human endothelin B receptor

Structure (SMILES)	IC50
COc1ccc([C@@H]2c3nc(NC(C)C)ccc3[C@H](c3ccc4c(c3)OCO4)[C@H]2C(=O)O)c(CCO)c1	19 nM
COc1ccc([C@@H]2c3nc(NC(C)C)ccc3[C@H](c3ccc4c(c3)OCO4)[C@H]2C(=O)O)c(OC(C)C)c1	88 nM
CCCOc1cc(OC)ccc1[C@@H]1c2nc(NC(C)C)ccc2[C@H](c2ccc3c(c2)OCO3)[C@H]1C(=O)O	100 nM
COc1ccc([C@@H]2c3nc(NC(C)C)ccc3[C@H](c3ccc4c(c3)OCO4)[C@H]2C(=O)O)c(CCCO)c1	20 nM
COc1ccc([C@@H]2c3nc(NC(C)C)ccc3[C@H](c3ccc4c(c3)OCO4)[C@H]2C(=O)O)c(CC(C)(C)O)c1	14 nM

The next lines start with the values.

IC50	Structure (SMILES)
480 nM	COc1ccc([C@@H]2c3nc(NC(C)C)ccc3[C@H](c3ccc4c(c3)OCO4)[C@H]2C(=O)O)c(OCc2ccccc2)c1
25 nM	COc1ccc([C@@H]2c3nc(NC(C)C)ccc3[C@H](c3ccc4c(c3)OCO4)[C@H]2C(=O)O)c(OC)c1
290 nM	COc1ccc([C@@H]2c3nc(NC(C)C)ccc3[C@H](c3ccc4c(c3)OCO4)[C@H]2C(=O)O)c(O)c1
23 nM	COc1ccc([C@@H]2c3nc(NC(C)C)ccc3[C@H](c3ccc4c(c3)OCO4)[C@H]2C(=O)O)c(CCC(C)(C)O)c1
420 nM	COc1ccc([C@@H]2c3nc(NC(C)C)ccc3[C@H](c3ccc4c(c3)OCO4)[C@H]2C(=O)O)c(OCC(C)C)c1
45 nM	CCOc1cc(OC)ccc1[C@@H]1c2nc(NC(C)C)ccc2[C@H](c2ccc3c(c2)OCO3)[C@H]1C(=O)O
